Data from patent US12606540B2, “Triazolone compound” (MEDSHINE DISCOVERY INC., priority 2020, dated 2026).
Read-outs that look alike come from different tables or passages of the source.

Legend:
[1] = target: DHODH enzyme (Homo sapiens, UniProt Q02127); assay: DHODH enzyme inhibitory activity in vitro (resazurin fluorescence); format: biochemical; conditions: 5 nM DHODH, 15 μM L-DHO, 80 μM Resazurin
Source text: The DHODH inhibitory activity of the compounds was detected by the following experimental method, and the experimental results are as shown in Table 1.
DHODH uses flavin mononucleotide FMN to catalyze the oxidation of dihydrooratic acid DHO to produce oratic acid, while the re-oxidation of FMN requires the participation of coenzyme CoQ. In the experiment of detecting the DHODH enzyme activity, CoQ was replaced by Resazurin dye as the final electron acceptor in the enzyme activity reaction. Resazurin solution is blue, and the resorufin generated after reduction has red fluorescence, and the fluorescence signal can be detected under the 535 nm of excitation wavelength and the 590 nm of emission wavelength. The components of the reaction buffer used in the experiment were 100 mM Hepes pH 7.0, 150 mM NaCl, 0.3% CHAPS, 0.5 mg/mL BSA, 0.1 μM FMN and 1% DMSO. The final concentration of DHODH enzyme in the reaction system was 5 nM, and the final concentration of substrate L-DHO was 15 μM, the final concentration of indicator Resazurin was 80 μM. The components of the reaction stop buffer were 100 mM Hepes pH 7.0 and 5 mM Orotate. The specific method was as follows: 2-fold final concentration of the DHODH enzyme solution was mixed with the compound, incubated at room temperature for 20 min, 2-fold final concentration of the substrate mixture solution of L-DHO and resazurin was added and reacted, incubated at room temperature away from light for 45 min. Then the reaction was stopped by adding 2-fold final concentration of the reaction stop buffer to the reaction system, and incubated at room temperature for 10 min, the fluorescence signal of the reaction system was detected with EnVision under the condition of Ex/Em=535/590 nm.

[2] = tested on: influenza virus A/Weiss/43 (H1N1); assay: Influenza virus cytopathic effect (CPE) experiment in MDCK cells; format: cell-based; conditions: unidentified influenza virus, H1N1, 120 h, 5 days incubation, CCK8
[3] = Pharmacokinetic evaluation in mice (IV and PO); format: in vivo, female Balb/c mice; conditions: for MRT last: read-out: MRT0-last
Experimental: Experiment process: 0.04 mg/mL of a clarified solution of the test compound in 5% DMSO/10% Solutol solution/85% water was injected into female Balb/c mice (overnight fasting, 7-9 weeks of age) via tail vein, with dosage of 0.2 mg/kg. 0.1 mg/mL of the test compound in 5% DMSO/10% Solutol solution/0.2% Tween80/84.8% water was administered by gavage to female Balb/c mice (overnight fasting, 7-9 weeks of age), with dosage of 1 mg/kg. About 30 μL of blood was collected from the jugular vein at 0.0833, 0.25, 0.5, 1.0, 2.0, 4.0, 8.0, 10 and 24 h and from the tail vein at 0.25, 0.5, 1.0, 2.0, 4.0, 8.0 and 24 h after administration for both groups of animals, and were placed in anticoagulation tubes with EDTA-K2, and the blood was separated by centrifugation to obtain plasma. Plasma concentrations were detected by LC-MS/MS, and relevant pharmacokinetic parameters were calculated using WinNonlin™ Version 6.3 (Pharsight, Mountain View, CA) pharmacokinetic software with a non-compartmental model linear logarithmic trapezoid method.

[4] = tested on: dextran sulfate sodium (DSS) induced colitis model; assay: DSS induced colitis model in mice; format: in vivo, C57BL/6 mice
Experimental: • 6.1 Purpose of the study: In order to verify the effect of the test sample on dextran sulfate sodium (DSS) induced colitis model in […] mice. • 6.2 Experimental design for inducing colitis: The mice in the vehicle and administration groups were administered on Day 0 for 1 h, and the mice freely drank water containing 3% DSS until Day 7, after Day 8, the mice were euthanized and their colon was taken for analysis. C57BL/6 mice, 8 weeks of age, 18-20 g, female. Administration was started on Day 0 to Day 7 for both the vehicle and administration groups. • 6.3 Drinking water containing DSS: The appropriate amount of DSS powder was dissolved in autoclaved drinking water and configured as a 3% DSS solution. • 6.4 Administration: Animals of group 1 were given the vehicle, animals of group 2 were given compound 5, and animals of group 3 were given normal drinking water and the vehicle, the vehicle was 5% DMSO/10% Solutol solution/0.2% Tween80/84.8% aqueous solution, with twice a day. 6.5 Measurement 6.5.1 Weight
Recording frequency was once a day, Days 0 to 8.
The recording frequency is once a day, Days 0 to 8, and is rated at 4 grades according to the following criteria: • Weight change (0, ≤1%; 1, 1-5%; 2, 6-10%; 3, 11-20%; 4, >20%). • Hematochezia (0, negative; 1, weakly positive for occult blood; 2, positive for occult blood; 3, significant hematochezia; 4, massive hematochezia) • Stool score (0, normal; 1, soft stool; 2, flaccid stool; 3, loose stool; 4, diarrhea)
The daily disease index is obtained by adding the scores of the above three parts.
On Day 8, all animals received an overdose of CO2 and were executed by cervical dislocation. The abdominal cavity was cut open and the colon of the mice was taken, the tissue around the colon was removed, and the longitudinal length from the ileocecum to the anus was measured and the whole was photographed. The colon was dissected, the intestinal contents were cleaned, weighed separately, and the stool consistency was recorded.
The colonic tissue was divided into two longitudinally and one was fixed in 10% neutral paraformaldehyde in the form of “Swiss” rolls.
The experimental data were expressed as mean±standard error (S.E.M.). Data were adopted by GraphPad Prism and analyzed by ANOVA statistical method. P<0.05 was considered as statistical difference.

[5] = tested on: MDR1 (P-glycoprotein); assay: Permeability evaluation on MDR1-MDCK II cell line; conditions: dog, MDCK-MDR1, pH 7.4
[6] = female, Balb/c, mouse, plasma, IV 0.2 mg/kg
[7] = female, Balb/c, mouse, plasma, PO 1 mg/kg
[8] = 5 mpk/BID, compared with the modeling group, p<0.0001

Chain of DHODH enzyme (Q02127 whole entry): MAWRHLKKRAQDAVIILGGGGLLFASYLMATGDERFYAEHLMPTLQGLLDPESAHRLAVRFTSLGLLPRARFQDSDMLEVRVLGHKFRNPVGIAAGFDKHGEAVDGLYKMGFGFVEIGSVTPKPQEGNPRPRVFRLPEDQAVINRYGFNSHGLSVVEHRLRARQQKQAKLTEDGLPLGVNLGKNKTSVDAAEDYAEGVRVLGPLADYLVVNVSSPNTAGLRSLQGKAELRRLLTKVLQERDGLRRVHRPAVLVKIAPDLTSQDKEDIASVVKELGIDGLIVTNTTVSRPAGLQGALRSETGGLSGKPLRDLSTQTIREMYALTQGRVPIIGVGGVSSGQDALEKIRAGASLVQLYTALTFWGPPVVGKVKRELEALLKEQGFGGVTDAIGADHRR

## CCn1c(CO)nn(-c2cc(O[C@@H](C)C(F)(F)F)c(/C(F)=C/c3ncccc3Cl)cc2F)c1=O [Compound 5]
[1]
  IC50: 3.5 nM
[2]
  EC50: 70 nM
[3]; IV 0.2 mg/kg
  Tlast: 24.0 h
[3]; PO 1 mg/kg
  F: 95.8%
  Tlast: 24.0 h
[3]; [6]
  AUC(0-inf): 1.51 µM·h
  AUC(0-t): 1.43 µM·h
  clearance: 4.38 mL/min/kg
  half-life: 350 min
  MRT last: 6.24 h
[3]; female, Balb/c, mouse, plasma, IV 0.2 mg/kg, read-out: VdSS
  Vd: 2.02 L/kg
[3]; [7]
  AUC(0-inf): 7.21 µM·h
  AUC(0-t): 6.87 µM·h
  Tmax: 2 h
  half-life: 322 min
  MRT last: 6.99 h
[3]; female, Balb/c, mouse, IV 0.2 mg/kg, plasma
  C0: 354 nM
[3]; female, Balb/c, mouse, PO 1 mg/kg, plasma
  Cmax: 794 nM
[4]; 5 mg/kg BID, Day 8, p<0.05 compared with the modeling group
  Level of inflammatory factor TNF-α in the colonic mucosa: effectively reduces
[4]; [8]
  Colon length (colonic shortening) at the experimental endpoint: significantly improves
  Colonic density at the experimental endpoint: significantly improves the inflammation-induced increase of colonic density
[4]; compared to the modeling group, administration for 6 days, Day 8 p<0.0001
  DAI (Disease Activity Index) score: significantly improved
[4]; compared with the modeling group, p<0.01 on Day 8, twice a day
  Animal weight change: significantly slow down the weight loss of mice
[5]
  Papp A→B at 150 min, 2 μM: 13.3 ×10⁻⁶ cm/s
  Papp B→A at 150 min, 2 μM: 18.2 ×10⁻⁶ cm/s
  Papp at 150 min, 2 μM: > 5.5 ×10⁻⁶ cm/s
  efflux ratio at 150 min, 2 μM: 1.37
